# Source: patent US8501770B2 (ArQule, Inc., priority 2009, dated 2013)
# Like-named read-outs stand apart in the source and are kept apart here.
# Target: Full-length inactive AKT1 (Homo sapiens, UniProt P31749)
# Assay: Inactive Akt Alpha Screen Assay
# Assay type: biochemical
# Conditions: read-out: Akt1 IC50, (AlphaScreen)
# Description: AKT1 activity was assayed using the GSK3-derived biotinylated peptide substrate, crosstide (biotin-[…]), and AlphaScreen™ (Amplified Luminescent Proximity Homogeneous Assay) technology. AKT1 activation was achieved by the addition of the activating kinases PDK1 and MAPKAPK2, lipid vesicles, and ATP. The extent of peptide phosphorylation was determined using a phospho-AKT substrate antibody and acceptor beads conjugated to Protein A and donor beads conjugated to streptavidin that bind to the biotin on the peptide. Excitation of the donor beads converted ambient oxygen to excited singlet oxygen which, when in close proximity to acceptor beads, reacted with acceptor beads resulting in signal amplification.
# Assay plates were incubated for 90 minutes at room temperature in the dark, and the plates were read on a Perkin Elmer Envision Multilabel plate reader (excitation wavelength: […], emission wavelength: 570 nm).
# [1] = values not marked with "*": AlphaScreen assay
# Full-length inactive AKT1, sequence (P31749 whole entry): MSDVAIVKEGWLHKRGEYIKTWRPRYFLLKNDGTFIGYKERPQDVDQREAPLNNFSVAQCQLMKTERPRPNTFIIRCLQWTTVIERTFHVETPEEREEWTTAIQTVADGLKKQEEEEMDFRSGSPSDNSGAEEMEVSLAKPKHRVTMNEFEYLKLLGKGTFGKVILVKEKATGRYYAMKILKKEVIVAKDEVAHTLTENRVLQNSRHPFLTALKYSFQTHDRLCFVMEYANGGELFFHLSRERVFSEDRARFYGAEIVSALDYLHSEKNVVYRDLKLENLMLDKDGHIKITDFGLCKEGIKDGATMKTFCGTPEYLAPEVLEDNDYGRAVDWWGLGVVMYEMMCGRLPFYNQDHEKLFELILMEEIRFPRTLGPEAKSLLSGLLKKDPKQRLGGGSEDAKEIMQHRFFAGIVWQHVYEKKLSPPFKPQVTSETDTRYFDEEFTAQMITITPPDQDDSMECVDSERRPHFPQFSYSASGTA
SMILES,IC50 [1],"IC50 (values not marked with ""*"")"
"Nc1ncccc1-c1nc2cc(-c3ccc4cc[nH]c4c3)cnc2n1-c1ccc(CNC(=O)c2ccccc2)cc1 [Example 139, N-{4-[2-(2-aminopyridin-3-yl)-6-(1H-indol-6-yl)-3H-imidazo[4,5-b]pyridin-3-yl]benzyl}benzamide]",360 nM,–
"Cc1cccc(-c2cnc3c(c2)nc(-c2cccnc2N)n3-c2ccc(CNC(=O)c3ccccc3)cc2)c1 [Example 140, N-{4-[2-(2-aminopyridin-3-yl)-6-(3-methylphenyl)-3H-imidazo[4,5-b]pyridin-3-yl]benzyl}benzamide]",1100 nM,–
"Nc1ncccc1-c1nc2cc(-c3cncnc3)cnc2n1-c1ccc(CNC(=O)c2ccccc2)cc1 [Example 142, N-{4-[2-(2-aminopyridin-3-yl)-6-pyrimidin-5-yl-3H-imidazo[4,5-b]pyridin-3-yl]benzyl}benzamide]",190 nM,–
"Nc1ncccc1-c1nc2cc(-c3ccc(Br)cc3)cnc2n1-c1ccc(CNC(=O)c2ccccc2)cc1 [Example 143, N-{4-[2-(2-aminopyridin-3-yl)-6-(4-bromophenyl)-3H-imidazo[4,5-b]pyridin-3-yl]benzyl}benzamide]",170 nM,–
"Nc1ncccc1-c1nc2cc(-c3ccncc3)cnc2n1-c1ccc(CNC(=O)c2ccccc2)cc1 [Example 145, N-{4-[2-(2-aminopyridin-3-yl)-6-pyridin-4-yl-3H-imidazo[4,5-b]pyridin-3-yl]benzyl}benzamide]",160 nM,–
"Nc1ncccc1-c1nc2cc(Br)cnc2n1-c1ccc(CNS(=O)(=O)c2ccccc2)cc1 [Example 146, N-{4-[2-(2-aminopyridin-3-yl)-6-bromo-3H-imidazo[4,5-b]pyridin-3-yl]benzyl}benzenesulfonamide]",420 nM,–
"Nc1ncccc1-c1nc2cc(Br)cnc2n1-c1ccc(CNS(=O)(=O)c2ccccc2Cl)cc1 [Example 147, N-{4-[2-(2-aminopyridin-3-yl)-6-bromo-3H-imidazo[4,5-b]pyridin-3-yl]benzyl}-2-chlorobenzenesulfonamide]",440 nM,–
"COc1ccc(S(=O)(=O)NCc2ccc(-n3c(-c4cccnc4N)nc4cc(Br)cnc43)cc2)cc1OC [Example 148, N-{4-[2-(2-aminopyridin-3-yl)-6-bromo-3H-imidazo[4,5-b]pyridin-3-yl]benzyl}-3,4-dimethoxybenzenesulfonamide]",240 nM,–
"COc1cccc(S(=O)(=O)NCc2ccc(-n3c(-c4cccnc4N)nc4cc(Br)cnc43)cc2)c1 [Example 149, N-{4-[2-(2-aminopyridin-3-yl)-6-bromo-3H-imidazo[4,5-b]pyridin-3-yl]benzyl}-3-methoxybenzenesulfonamide]",260 nM,–
"Nc1ncccc1-c1nc2cc(Br)cnc2n1-c1ccc(CNS(=O)(=O)c2ccc(F)c(Cl)c2)cc1 [Example 150, N-{4-[2-(2-aminopyridin-3-yl)-6-bromo-3H-imidazo[4,5-b]pyridin-3-yl]benzyl}-3-chloro-4-fluorobenzenesulfonamide]",2300 nM,–
"Nc1ncccc1-c1nc2cc(Br)cnc2n1-c1ccc(CNS(=O)(=O)C2CCCCC2)cc1 [Example 151, N-{4-[2-(2-aminopyridin-3-yl)-6-bromo-3H-imidazo[4,5-b]pyridin-3-yl]benzyl}cyclohexanesulfonamide]",340 nM,–
"CC(C)CS(=O)(=O)NCc1ccc(-n2c(-c3cccnc3N)nc3cc(Br)cnc32)cc1 [Example 152, N-{4-[2-(2-aminopyridin-3-yl)-6-bromo-3H-imidazo[4,5-b]pyridin-3-yl]benzyl}-2-methylpropane-1-sulfonamide]",240 nM,–
"CCCCS(=O)(=O)NCc1ccc(-n2c(-c3cccnc3N)nc3cc(Br)cnc32)cc1 [Example 153, N-{4-[2-(2-aminopyridin-3-yl)-6-bromo-3H-imidazo[4,5-b]pyridin-3-yl]benzyl}butane-1-sulfonamide]",440 nM,–
"Cc1noc(C)c1S(=O)(=O)NCc1ccc(-n2c(-c3cccnc3N)nc3cc(Br)cnc32)cc1 [Example 154, N-{4-[2-(2-aminopyridin-3-yl)-6-bromo-3H-imidazo[4,5-b]pyridin-3-yl]benzyl}-3,5-dimethylisoxazole-4-sulfonamide]",1200 nM,–
"Nc1ncccc1-c1nc2cc(Br)cnc2n1-c1ccc(CNS(=O)(=O)c2cccs2)cc1 [Example 155, N-{4-[2-(2-aminopyridin-3-yl)-6-bromo-3H-imidazo[4,5-b]pyridin-3-yl]benzyl}thiophene-2-sulfonamide]",140 nM,–
"Nc1ncccc1-c1nc2cc(Br)cnc2n1-c1ccc(CNS(=O)(=O)c2cccc(Cl)c2)cc1 [Example 156, N-{4-[2-(2-aminopyridin-3-yl)-6-bromo-3H-imidazo[4,5-b]pyridin-3-yl]benzyl}-3-chlorobenzenesulfonamide]",1200 nM,–
"Nc1ncccc1-c1nc2cc(Br)cnc2n1-c1ccc(CNS(=O)(=O)c2ccc(F)cc2)cc1 [Example 158, N-{4-[2-(2-aminopyridin-3-yl)-6-bromo-3H-imidazo[4,5-b]pyridin-3-yl]benzyl}-4-fluorobenzenesulfonamide]",–,490 nM

SMILES,IC50 [1],"IC50 (values not marked with ""*"")"
"Nc1ncccc1-c1nc2cc(Br)cnc2n1-c1ccc(CNS(=O)(=O)c2c(F)cccc2F)cc1 [Example 159, N-{4-[2-(2-aminopyridin-3-yl)-6-bromo-3H-imidazo[4,5-b]pyridin-3-yl]benzyl}-2,6-difluorobenzenesulfonamide]",–,200 nM
"Nc1ncccc1-c1nc2cc(Br)cnc2n1-c1ccc(CNS(=O)(=O)c2cccc(F)c2)cc1 [Example 160, N-{4-[2-(2-aminopyridin-3-yl)-6-bromo-3H-imidazo[4,5-b]pyridin-3-yl]benzyl}-3-fluorobenzenesulfonamide]",–,330 nM
"Nc1ncccc1-c1nc2cc(Br)cnc2n1-c1ccc(CNS(=O)(=O)c2ccc3c(c2)CCO3)cc1 [Example 161, N-{4-[2-(2-aminopyridin-3-yl)-6-bromo-3H-imidazo[4,5-b]pyridin-3-yl]benzyl}-2,3-dihydro-1-benzofuran-5-sulfonamide]",–,290 nM
"Cc1ccc(S(=O)(=O)NCc2ccc(-n3c(-c4cccnc4N)nc4cc(Br)cnc43)cc2)cc1 [Example 162, N-{4-[2-(2-aminopyridin-3-yl)-6-bromo-3H-imidazo[4,5-b]pyridin-3-yl]benzyl}-4-methylbenzenesulfonamide]",–,450 nM
"Cc1cccc(S(=O)(=O)NCc2ccc(-n3c(-c4cccnc4N)nc4cc(Br)cnc43)cc2)c1 [Example 163, N-{4-[2-(2-aminopyridin-3-yl)-6-bromo-3H-imidazo[4,5-b]pyridin-3-yl]benzyl}-3-methylbenzenesulfonamide]",–,400 nM
"Nc1ncccc1-c1nc2cc(Br)cnc2n1-c1ccc(CNS(=O)(=O)c2cccc3cccnc23)cc1 [Example 164, N-{4-[2-(2-aminopyridin-3-yl)-6-bromo-3H-imidazo[4,5-b]pyridin-3-yl]benzyl}quinoline-8-sulfonamide]",–,620 nM
"N#Cc1ccc(S(=O)(=O)NCc2ccc(-n3c(-c4cccnc4N)nc4cc(Br)cnc43)cc2)cc1 [Example 165, N-{4-[2-(2-aminopyridin-3-yl)-6-bromo-3H-imidazo[4,5-b]pyridin-3-yl]benzyl}-4-cyanobenzenesulfonamide]",–,2100 nM
"Cn1cnc(S(=O)(=O)NCc2ccc(-n3c(-c4cccnc4N)nc4cc(Br)cnc43)cc2)c1 [Example 166, N-{4-[2-(2-aminopyridin-3-yl)-6-bromo-3H-imidazo[4,5-b]pyridin-3-yl]benzyl}-1-methyl-1H-imidazole-4-sulfonamide]",–,440 nM
"Cc1ccc(C)c(S(=O)(=O)NCc2ccc(-n3c(-c4cccnc4N)nc4cc(Br)cnc43)cc2)c1 [Example 167, N-{4-[2-(2-aminopyridin-3-yl)-6-bromo-3H-imidazo[4,5-b]pyridin-3-yl]benzyl}-2,5-dimethylbenzenesulfonamide]",–,480 nM
"Nc1ncccc1-c1nc2cc(Br)cnc2n1-c1ccc(CNS(=O)(=O)C2CC2)cc1 [Example 168, N-{4-[2-(2-aminopyridin-3-yl)-6-bromo-3H-imidazo[4,5-b]pyridin-3-yl]benzyl}cyclopropanesulfonamide]",–,170 nM
"Nc1ncccc1-c1nc2cc(Br)cnc2n1-c1ccc(CNS(=O)(=O)c2ccsc2)cc1 [Example 169, N-{4-[2-(2-aminopyridin-3-yl)-6-bromo-3H-imidazo[4,5-b]pyridin-3-yl]benzyl}thiophene-3-sulfonamide]",–,190 nM
"CCS(=O)(=O)NCc1ccc(-n2c(-c3cccnc3N)nc3cc(Br)cnc32)cc1 [Example 170, N-{4-[2-(2-aminopyridin-3-yl)-6-bromo-3H-imidazo[4,5-b]pyridin-3-yl]benzyl}ethanesulfonamide]",–,490 nM
"Nc1ncccc1-c1nc2cc(Br)cnc2n1-c1ccc(CNS(=O)(=O)c2ccccc2F)cc1 [Example 171, N-{4-[2-(2-aminopyridin-3-yl)-6-bromo-3H-imidazo[4,5-b]pyridin-3-yl]benzyl}-2-fluorobenzenesulfonamide]",–,350 nM
"CC(C)(C)c1ccc(C(=O)NCc2ccc(-n3c(-c4cccnc4N)nc4cccnc43)cc2)cc1 [Example 172, N-{4-[2-(2-aminopyridin-3-yl)-3H-imidazo[4,5-b]pyridin-3-yl]benzyl}-4-tert-butylbenzamide]",–,99 nM
"Nc1ncccc1-c1nc2cc(-c3ccc(CO)cc3)cnc2n1-c1ccc(CNC(=O)c2ccccc2)cc1 [Example 173, N-(4-{2-(2-aminopyridin-3-yl)-6-[4-(hydroxymethyl)phenyl]-3H-imidazo[4,5-b]pyridin-3-yl}benzyl)benzamide]",–,26 nM
"CC(=O)Nc1cccc(-c2cnc3c(c2)nc(-c2cccnc2N)n3-c2ccc(CNC(=O)c3ccccc3)cc2)c1 [Example 174, N-(4-{6-[3-(acetylamino)phenyl]-2-(2-aminopyridin-3-yl)-3H-imidazo[4,5-b]pyridin-3-yl}benzyl)benzamide]",–,38 nM
